{"source": "patent US20200362302A1", "about": "“METHOD FOR PRODUCING CELL” (FUJIFILM Corporation, priority 2018, published 2020)", "system": "human iPS cells", "experiment": "treatment efficiency by flow cytometry (positive percentage of CD75)", "format": "cell-based", "method": "The culture and the treatment were performed in the same manner as in Example 1 except that the treatment was performed under conditions in which a concentration of PD0325901 was 0.3 to 1.0 μmol/L, and subculture was performed for about 2 weeks after day 9. The completion of the treatment in Example 1 was evaluated by a positive percentage of a cell surface marker CD75. The cultured human iPS cells were detached with TrypLE™ Select, and stained with Alexa Fluor 647 Mouse Anti-Human CD75 antibody. A positive percentage of CD75 was analyzed by a flow cytometer Attune NxT."}
{"smiles": "O=C(NOC[C@H](O)CO)c1ccc(F)c(F)c1Nc1ccc(I)cc1F", "note": "[PD0325901, N-[(2R)-2,3-dihydroxypropoxy]-3,4-difluoro-2-[(2-fluoro-4-iodophenyl)amino]-benzamide]", "values": [{"measurement": "CD75", "setting": "any of the cell lines, PD0325901 within the range of 0.3 to 0.5 μmol/L", "result": "not positive"}, {"measurement": "positive percentage of CD75", "setting": "three lines of human iPS cells, PD0325901 at 0.3 to 1.0 μmol/L", "result": "increase in positive percentage of CD75"}]}
